Measured values published in US9375434B2, “Antitumor effect potentiator composed of imidazooxazine compound” (Taiho Pharmaceutical Co., Ltd., priority 2012, dated 2016).

Experiments:
Type in all cases: in vivo, BALB/cA Jcl-nu/nu mice
[1] = tested on: Human stomach cancer cell line (4-1ST); assay: Potentiation of antitumor effect of TS-1, 4-1ST subcutaneous implant in nude mice (Test Example 8)
Procedure: (§1) As an index of antitumor effect, the TV at Day 15 was measured for each of the drug administration groups, and the relative tumor volume (RTV) relative to Day 1 and T/C (%) were calculated by the following formulas to evaluate the antitumor effect. […] In the figure, the asterisk represents a result having a statistically significant difference compared with the single-drug administration group.
(§2) FIG. 1 and Table 10 show the results. TV (mm^3)=(length×width^2)/2 RTV=(TV at Day 15)/(TV at Day 1) T/C(%)=(average RTV value of the test liquid administration group)/(average RTV value of the control group)×100
Human stomach cancer cell line (4-1ST) was subcutaneously implanted into the right flank of 6-week-old male BALB/cA Jcl-nu/nu mice, and was used in the same manner as in Test Example 1.
TS-1 was prepared by mixing FT (tegafur; Taiho Pharmaceutical Co., Ltd.), CDHP (gimeracil; Taiho Pharmaceutical Co., Ltd.) and Oxo (oteracil potassium; Taiho Pharmaceutical Co., Ltd.) at a molar ratio of 1:0.4:1, adding a 0.5% (w/v) HPMC aqueous solution to the mixture at an FT concentration of 1.66 mg/mL, and subjecting the mixture to a ultrasonic treatment to obtain an even suspension (an administration liquid having a double concentration of the liquid in the group of 8.3 mg/kg/day dose). The suspension was diluted two-fold with a 0.5% (w/v) HPMC aqueous solution to a concentration of 0.83 mg/mL, thereby yielding an administration liquid to be used for the group of 8.3 mg/kg/day dose. Further, the test liquid of Compound-I was prepared by adjusting its dose to 16 and 24 mg/kg/day.
Compound-I and TS-1 were orally administered once a day for 14 days from Day 1. In the combined administration groups, Compound-I at a dose of 16 and 24 mg/kg/day, and TS-1 at a dose of 8.3 mg/kg/day were administered, and the evaluation was performed in the same manner as in Test Example 1. FIGS. 15A and 15B, and Table 17 show the results.
In the same manner as in Test Example 7, the effect of the combined administration was also statistically determined. In the figure and the table, the asterisk represents a result having a statistically significant difference compared with the single-drug administration group.

[2] = tested on: Human stomach cancer cell line (NCI-N87); assay: Potentiation of antitumor effect of everolimus, NCI-N87 subcutaneous implant in nude mice (Test Example 7); conditions: compound-I 16 mg/kg/day p.o. day 1-14
Procedure: as §1, §2
Human stomach cancer cell line (NCI-N87) was subcutaneously implanted into the right flank of 7-week-old male BALB/cA Jcl-nu/nu mice, and was used in the same manner as in Test Example 1.
In the group receiving only everolimus (IS Chemical Technology), the test liquid was prepared to enable administration at an everolimus dose of 5 mg/kg/day. A vehicle of 5% ethyl alcohol/5% PEG400/4% Tween 20/86% distilled water was used. In the groups receiving only Compound-I, the test liquid was prepared by diluting Compound-I with 0.5% HPMC to enable administration at a Compound-I dose of 16 mg/kg/day. In the combined administration group, Compound-I was administered at a dose of 16 mg/kg/day, and everolimus was administered at a dose of 5 mg/kg/day. Both Compound-I and everolimus were orally administered once a day for 14 days from Day 1, and the evaluation was performed in the same manner as in Test Example 1. FIG. 13 and Table 16 show the results.
In the figure and the table, the asterisk represents a result having a statistically significant difference compared with the single-drug administration group.

[3] = tested on: Human ovarian cancer A2780 cell line; assay: Potentiation of antitumor effect of paclitaxel, A2780 subcutaneous implant in nude mice (Test Example 1)
Procedure: Human ovarian cancer A2780 cell line was subcutaneously implanted into the right flank of 7-week-old male BALB/cA Jcl-nu/nu mice. After the implant, the length (mm) and the width (mm) of the tumor were measured, and the tumor volume (TV) was calculated. Thereafter, the mice were divided into groups so that the average TV is equalized in each group. The day of grouping (n=5) is referred to as Day 0. […] Test liquids for the groups receiving only Compound-I were prepared by diluting Compound-I with 0.5% hydroxypropyl methylcellulose (HPMC) so as to enable administration at a Compound-I dose of 8 mg/kg/day, 16 mg/kg/day, and 24 mg/kg/day. […] In the groups receiving the two drugs, Compound-I was administered at doses of 8 mg/kg/day, 16 mg/kg/day, and 24 mg/kg/day, and paclitaxel was administered at a dose of 60 mg/kg/day. […] In the figure, the asterisk represents a result having a statistically significant difference compared with the single-drug administration group. FIG. 1 and Table 10 show the results.

[4] = tested on: Human ovarian cancer cell line (A2780); assay: Potentiation of antitumor effect of irinotecan, A2780 subcutaneous implant in nude mice (Test Example 5); conditions: compound-I 16 mg/kg/day p.o. day 1-14
Procedure: As an index of antitumor effect, the TV at Day 15 was measured for each of the drug administration groups, and the relative tumor volume (RTV) relative to Day 1 and T/C (%) were calculated by the following formulas to evaluate the antitumor effect.
TV (mm^3)=(length×width^2)/2 RTV=(TV at Day 15)/(TV at Day 1) T/C(%)=(average RTV value of the test liquid administration group)/(average RTV value of the control group)×100
Human ovarian cancer cell line (A2780) was subcutaneously implanted into the right flank of 7-week-old male BALB/cA Jcl-nu/nu mice, and was used in the same manner as in Test Example 1. […] Further, the test liquid of Compound-I was prepared by adjusting its dose to 16 mg/kg/day.
The effect of the combined administration was also statistically determined in the same manner as in Test Example 1. […] FIG. 9 and Table 14 show the results. Further, the change in the body weight over time was evaluated as an index of toxicity in the same manner as in Test Example 1.

[5] = compound-I 16 mg/kg/day p.o. day 1-14
[6] = compound-I 24 mg/kg/day p.o. day 1-14
[7] = compound-I 8 mg/kg/day p.o. day 1-14

## CC1(O)CC(N)(c2ccc(-c3nc4n(c3-c3ccccc3)COc3ccncc3-4)cc2)C1 (stereo not drawn) [compound-I, trans-3-amino-1-methyl-3-(4-(3-phenyl-5H-imidazo[1,2-c]pyrido[3,4-e][1,3]oxazin-2-yl)phenyl)cyclobutanol]
[1]; [5]
  RTV day 15 Mean ± SD: 4.53 ± 0.59
  T/C (%): 38.1%
[1]; [6]
  RTV day 15 Mean ± SD: 3.83 ± 0.48
  T/C (%): 32.2%
[2]
  RTV day 15 Mean ± SD: 1.19 ± 0.27
  T/C (%): 43%
[3]; [7]
  RTV day 15 Mean ± SD: 23.66 ± 9.16
  T/C (%): 92%
[3]; [5]
  RTV day 15 Mean ± SD: 19.91 ± 1.41
  T/C (%): 77%
[3]; [6]
  RTV day 15 Mean ± SD: 18.94 ± 5.52
  T/C (%): 74%
[4]
  RTV day 15 Mean ± SD: 19.16 ± 2.60
  T/C (%): 63%
